Legend:
[1] = target: His-tagged KRAS G12D protein (Homo sapiens (Human), UniProt P01116, G12D); assay: KRAS G12D TR-FRET Assay; format: binding; conditions: biotinylated KRPep-2d, 10 μM GDP
Procedure: Compounds of interest were prepared in a dose-response titration in DMSO, and 80 nL were added via Labcyte Echo to each well of a 384-well plate (Perkin Elmer 6008280). The His-tagged KRAS G12D protein (Amgen) was diluted to 20 nM in Assay Buffer (20 mM HEPES, pH 7.4, 10 mM MgCl2, 50 mM NaCl, 0.1% BSA, 0.01% Tween-20, 10 μM GDP) and 2 μL was added to the appropriate wells of the 384-well plate. The plate was incubated for 30 minutes at rt. Biotinylated KRPep-2d substrate (Amgen) was diluted to […] in Assay Buffer and 2 AL was added to all wells and incubated for 1 hour at room temperature. Detection Reagent (0.4 nM LANCE Eu-W1024 Anti-6×His (Perkin Elmer AD0401), 5 nM streptavidin-d2 (Cisbio 610SADLA)) was prepared in Assay Buffer, then 4 AL was added to the plate and incubated for 1 h at rt. Plates were read using PerkinElmer En Vision (ex: 320 nm, em1: 665 nm, em2: 615 nm) and em1/em2 data was used to generate curve fits using a 4-parameter logistic model to calculate IC50 values.

[2] = target: GDP-bound KRAS protein (aa 1-169), G12D and C118A; SOS-mediated nucleotide exchange (Homo sapiens (Human), UniProt P01116, C118A/G12D); assay: KRAS G12D Coupled Nucleotide Exchange Assay; format: biochemical; conditions: 2 h compound pre-incubation, GTP, cRAF AlphaScreen
Chain of GDP-bound KRAS protein (aa 1-169), G12D and C118A; SOS-mediated nucleotide exchange (P01116 other isoform, or with tags, fused parts or gaps G12D/C118A): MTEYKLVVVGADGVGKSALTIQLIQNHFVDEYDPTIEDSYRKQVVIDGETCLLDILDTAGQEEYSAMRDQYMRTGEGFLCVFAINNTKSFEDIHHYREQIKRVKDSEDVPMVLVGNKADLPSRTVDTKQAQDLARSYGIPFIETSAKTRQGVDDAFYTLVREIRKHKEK
Procedure: Purified GDP-bound KRAS protein (aa 1-169), containing both G12D and C118A amino acid substitutions and an N-terminal His-tag, was pre-incubated in assay buffer (25 mM HEPES pH 7.4, 10 mM MgCl2, and 0.01% Triton X-100) with a compound dose-response titration for 2 h. Following compound pre-incubation, purified SOS protein (aa 564-1049) and GTP (Roche 10106399001) were added to the assay wells and incubated for an additional 30 min. […] The assay plates were then read on a PerkinElmer En Vision Multilabel Reader, using AlphaScreen® technology, and data were analyzed using a 4-parameter logistic model to calculate IC50 values.

Chain of His-tagged KRAS G12D protein (P01116-2 other isoform, or with tags, fused parts or gaps G12D): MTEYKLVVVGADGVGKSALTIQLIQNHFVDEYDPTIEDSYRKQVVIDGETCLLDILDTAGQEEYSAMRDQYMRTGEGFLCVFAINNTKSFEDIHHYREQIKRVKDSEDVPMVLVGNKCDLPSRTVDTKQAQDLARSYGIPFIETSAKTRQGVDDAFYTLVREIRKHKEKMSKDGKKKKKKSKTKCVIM

Row | SMILES | IC50 [1] [µM] | IC50 [2] [µM]
1 | CC1(O)COCCN(c2nc(OC[C@@]34CCCN3C[C@H](F)C4)nc3c(F)c(-c4ccc(F)c5sc(N)c(C#N)c45)c(Cl)cc23)C1 (single isomer, unassigned) [Example 23] | 0.044 | 0.042
2 | CC(C)(O)COc1nc(N2CCOC[C@@](C)(O)C2)c2cc(Cl)c(-c3ccc(F)c4sc(N)c(C#N)c34)c(F)c2n1 (single isomer, unassigned) [Example 67] | 0.061 | 0.034
3 | N#Cc1c(N)sc2c(F)ccc(-c3c(Cl)cc4c(N5CCC6(CCCS6(=O)=O)C5)nc(OC[C@@]56CCCN5C[C@H](F)C6)nc4c3F)c12 (stereo partly drawn) [Example 9, 2-Amino-4-(6-chloro-4-(1,1-dioxido-1-thia-7-azaspiro[4.4]nonan-7-yl)-8-fluoro-2-(((2R,7aS)-2-fluorotetrahydro-1H-pyrrolizin-7a(5H)-yl)methoxy)quinazolin-7-yl)-7-fluorobenzo[b] thiophene-3-carbonitrile] | 0.06 | 0.041
4 | C[C@@]1(O)CCCN(c2nc(OC[C@@]34CCCN3C[C@H](F)C4)nc3c(F)c(-c4ccc(F)c5sc(N)c(C#N)c45)ncc23)C1 [Example 56, 2-Amino-7-fluoro-4-(8-fluoro-2-(((2R,7aS)-2-fluorotetrahydro-1H-pyrrolizin-7a(5H)-yl)methoxy)-4-((R)-3-hydroxy-3-methylpiperidin-1-yl)pyrido[4,3-d]pyrimidin-7-yl)benzo[b] thiophene-3-carbonitrile] | 0.017 | 0.03

Other lines, results leading:

Row | IC50 [1] [µM] | IC50 [2] [µM] | SMILES
5 | 0.164 | 0.094 | N#Cc1c(N)sc2c(F)ccc(-c3c(Cl)cc4c(N5CCCOCCC5)nc(OC[C@@]56CCCN5C[C@H](F)C6)nc4c3F)c12 (single isomer, unassigned) [Example 19]
6 | 0.034 | 0.046 | N#Cc1c(N)sc2c(F)ccc(-c3c(Cl)cc4c(N5CCCC6(CCOC6)C5)nc(OC[C@@]56CCCN5C[C@H](F)C6)nc4c3F)c12 (stereo partly drawn) [Example 2, 2-Amino-4-(6-chloro-8-fluoro-2-(((2R,7aS)-2-fluorotetrahydro-1H-pyrolizin-7a(5H)-yl)methoxy)-4-(2-oxa-7-azaspiro[4.5]decan-7-yl)quinazolin-7-yl)-7-fluorobenzo[b] thiophene-3-carbonitrile]
7 | 0.044 | 0.036 | N#Cc1c(N)sc2c(F)ccc(-c3c(Cl)cc4c(N5CCCC6(CCS6(=O)=O)C5)nc(OC[C@@]56CCCN5C[C@H](F)C6)nc4c3F)c12 (stereo partly drawn) [Example 10, 2-Amino-4-(6-chloro-4-(1,1-dioxido-1-thia-6-azaspiro[3.5]nonan-6-yl)-8-fluoro-2-(((2R,7aS)-2-fluorotetrahydro-1H-pyrrolizin-7a(5H)-yl)methoxy)quinazolin-7-yl)-7-fluorobenzo[b] thiophone-3-carbonitrile]
8 | 0.144 | 0.091 | N#Cc1c(N)sc2c(F)ccc(-c3c(Cl)cc4c(N5CCCC[C@@H](C#N)C5)nc(OC[C@@]56CCCN5C[C@H](F)C6)nc4c3F)c12 [Example 68, (3R)-1-(7-(2-amino-3-cyano-7-fluorobenzo[b]thiophen-4-yl)-6-chloro-8-fluoro-2-(((2R,7aS)-2-fluorotetrahydro-1H-pyrrolizin-7a(5H)-yl)methoxy)quinazolin-4-yl)azepane-3-carbonitrile]
9 | 0.139 | 0.071 | N#Cc1c(N)sc2c(F)ccc(-c3c(Cl)cc4c(N5CCCC[C@H](C#N)C5)nc(OC[C@@]56CCCN5C[C@H](F)C6)nc4c3F)c12 [Example 69, (3S)-1-(7-(2-amino-3-cyano-7-fluorobenzo[b]thiophen-4-yl)-6-chloro-8-fluoro-2-(((2R,7aS)-2-fluorotetrahydro-1H-pyrrolizin-7a(5H)-yl)methoxy)quinazolin-4-yl)azepane-3-carbonitrile]
